The values that follow come from US8497276B2, “Substituted indolo-piperidine compounds” (ArQule, Inc., priority 2009, dated 2013).

Experiment [1] has as its system Kato III. Nature of the experiment: MTS Assay (cell growth inhibition), Kato III. Format: cell-based. The following applies: Kato III cells, 72 hours with test compound; concentration not given. Here is the method:
(§1) Cells were maintained at 37° C., 5% CO2 in DMEM media supplemented with 1% fetal bovine serum, penicillin/streptomycin and fungizone (Invitrogen). Cells were seeded into 96-well tissue culture plates at 3000 per well and cultured at 37° C. for 18 hours. Test compounds were dissolved and diluted to 300× in DMSO then diluted 1:40 in DMEM. Cells were incubated with test compounds for 72 hours followed by incubation with tetrazolium compound (3-(4,5-dimethylthiazol-2-yl)-5-(3-carboxymethoxyphenyl)-2-(4-sulfophenyl)-2H-tetrazolium, inner salt; MTS) and the electron coupling reagent, phenazine methosulfate (PMS) for 4 hours. […] The ability of compounds to inhibit cell growth in this assay is correlated with the reduction of dehydrogenase enzyme activity found in metabolically active cells. The measurement of the absorbance of the formazan was assessed using an ENVISION™ (Perkin Elmer) microplate reader at 492 nm. The calculated IC50 value is the concentration of the test compound that causes a 50% decrease in the absorbance.

Experiment [2] has as its system PC-3. The experiment in a line: MTS Assay (cell growth inhibition), PC-3. The following applies: PC-3 cells, 72 hours with test compound; concentration not given. It counts as cell-based. How it is done: as §1
For experiment [3], the system named is MDA-MB 231. Nature of the experiment: MTS Assay (cell growth inhibition), MDA-MB 231. Format: cell-based. The following applies: MDA-MB 231 cells, 72 hours with test compound; concentration not given. How it is done: as §1
Experiment [4] has as its system DLD-1. The experiment in a line: MTS Assay (cell growth inhibition), DLD-1. Format: cell-based. The following applies: DLD-1 cells, 72 hours with test compound; concentration not given. How it is done: as §1
The target of experiment [5] is T1, Tec kinase (Homo sapiens, UniProt P42680).
T1 sequence (P42680 1-631): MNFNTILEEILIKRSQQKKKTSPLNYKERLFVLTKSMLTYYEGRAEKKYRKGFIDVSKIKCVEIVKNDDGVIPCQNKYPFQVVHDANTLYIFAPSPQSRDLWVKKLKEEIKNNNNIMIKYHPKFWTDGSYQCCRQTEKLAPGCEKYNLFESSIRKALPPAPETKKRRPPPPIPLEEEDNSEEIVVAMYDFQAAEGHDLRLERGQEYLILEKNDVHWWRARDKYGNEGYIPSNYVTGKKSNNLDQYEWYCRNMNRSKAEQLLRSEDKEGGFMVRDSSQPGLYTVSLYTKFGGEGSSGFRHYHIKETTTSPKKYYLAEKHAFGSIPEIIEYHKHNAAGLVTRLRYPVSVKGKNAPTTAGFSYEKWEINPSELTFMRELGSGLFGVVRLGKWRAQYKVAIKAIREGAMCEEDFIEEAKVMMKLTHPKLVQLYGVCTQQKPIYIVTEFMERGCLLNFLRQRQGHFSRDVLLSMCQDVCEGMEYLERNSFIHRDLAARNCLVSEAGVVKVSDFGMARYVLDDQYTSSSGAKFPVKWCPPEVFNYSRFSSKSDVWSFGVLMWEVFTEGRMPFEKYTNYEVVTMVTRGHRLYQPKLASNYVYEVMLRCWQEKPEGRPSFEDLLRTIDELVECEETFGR
Nature of the experiment: Tec Kinase Activity Assay. Particulars: 75 μM ATP, Pyk-2 substrate; compound concentration not given. It counts as biochemical. How it is done:
The disclosed compounds were assayed for their ability to inhibit the activity of Tec kinase. Nunc Maxisorb plates were coated with streptavidin by overnight incubation with 100 μl per well of 1 μg/ml Streptavidin in DPBS. Prior to the start of the experiment, the plates were washed with TBST (3×200 μl) and blocked for at least 1 hour by adding 150 μl of 5% BSA/TBST. The plates were then washed with TBST (3×200 μl/well) and left dry immediately before the capture step.
The disclosed test compounds and controls (Staurosporine and Sutent) were prepared using the following assay buffer (50 mM Tris-HCl, 0.02 mg/ml BSA, 10 mM MgCl2, 0.1 mM Na3VO4, 1 mM EGTA, 75 μM ATP, 0.01% NP-40, 2 mM DTT in 10% glycerol/water) at 3× desired final concentration. 20 μl of the test compounds (or control) and 20 μl TEC (0.25 ng/μl) were rapidly added to a reaction plate. The plate was incubated for 30 minutes. 20 μl of Pyk-2 (0.5 ng/μl) was then added to the reaction plate. The plate was incubated at room temperature for two hours.
50 μl was transferred from the reaction plate to the streptavidin coated plate. The capture plate was incubated at room temperature for 30 minutes then washed with TBST 6 times. 100 μl/well of Cell Signaling anti-phospho tyrosine was added to the capture plate at a dilution of 1:3000 in 2% BSA/TBST. The plate was incubated for one hour at room temperature then washed with TBST 6 times. 100 μl/well of alkaline phosphatase tagged goat anti-mouse antibody was added to the capture plate at a dilution of 1:4000 in 2% BSA/TBST. The plate was incubated for one hour at room temperature then washed with TBST 6 times.
The fluorescent readout was initiated by the addition of 100 μl/well of Attophos reagent (6 mg/10 ml) and the reading was done on the Perkin Elmer Envision system.

For experiment [6], the system named is PACA-2. Nature of the experiment: MTS Assay (cell growth inhibition), PACA-2. It counts as cell-based. The following applies: PACA-2 cells, 72 hours with test compound; concentration not given. Here is the method:
as §1

In experiment [7] the test system is NCI-H1299. Nature of the experiment: MTS Assay (cell growth inhibition), NCI-H1299. It counts as cell-based. The following applies: NCI-H1299 cells, 72 hours with test compound; concentration not given. Here is the method:
as §1

For the molecule `CC(C)c1ccc(C2c3[nH]c4ccccc4c3CCN2c2ncnc3[nH]cnc23)cc1` (stereo not drawn) [Compound 19, 1-(4-isopropylphenyl)-2-(9H-purin-6-yl)-2,3,4,9-tetrahydro-1H-beta-carboline], the “MTS cell kill data (% inhibition) Kato III” value in experiment [1] is listed as “C (C = <50% inhibition)”. Also, the “MTS cell kill data (% inhibition) PC-3” value in experiment [2] is listed as “C (C = <50% inhibition)”. For the same molecule, the “MTS cell kill data (% inhibition) MDA-MB 231” value in experiment [3] is “C (C = <50% inhibition)”. In addition, in experiment [4], the “MTS cell kill data (% inhibition) DLD-1” value is given as “C (C = <50% inhibition)”. Moreover, the “Biochemical IC50 (% inhibition) Tec” value in experiment [5] was “C (C = <50% inhibition)”. In experiment [6], the “MTS cell kill data (% inhibition) PACA-2” value is “C (C = <50% inhibition)”. Moreover, in experiment [7], the “MTS cell kill data (% inhibition) NCI-H1299” value is on record as “C (C = <50% inhibition)”.

For the molecule `CC(C)c1ccc(C2c3[nH]c4ccccc4c3CCN2c2nc(N)nc3[nH]cnc23)cc1` (stereo not drawn) [Compound 20, 6-[1-(4-isopropylphenyl)-1,3,4,9-tetrahydro-2H-beta-carbolin-2-yl]-9H-purin-2-amine], in experiment [1], the “MTS cell kill data (% inhibition) Kato III” value is on record as “A (A = 80-100% inhibition)”. Also, in experiment [2], the “MTS cell kill data (% inhibition) PC-3” value is listed as “C (C = <50% inhibition)”. Besides, the “MTS cell kill data (% inhibition) MDA-MB 231” value in experiment [3] is “B (B = 50-79% inhibition)”. In experiment [4], the “MTS cell kill data (% inhibition) DLD-1” value is given as “A (A = 80-100% inhibition)”. Besides, the “Biochemical IC50 (% inhibition) Tec” value in experiment [5] was “C (C = <50% inhibition)”. The “MTS cell kill data (% inhibition) PACA-2” value in experiment [6] is “B (B = 50-79% inhibition)”. In addition, the “MTS cell kill data (% inhibition) NCI-H1299” value in experiment [7] is “A (A = 80-100% inhibition)”.

`CC(C)c1ccc(C2c3[nH]c4ccccc4c3CCN2c2ncnc3[nH]ncc23)cc1` (stereo not drawn) [Compound 21, 1-(4-isopropylphenyl)-2-(1H-pyrazolo[3,4-d]pyrimidin-4-yl)-2,3,4,9-tetrahydro-1H-beta-carboline]: in experiment [1], the “MTS cell kill data (% inhibition) Kato III” value is listed as “A (A = 80-100% inhibition)”. In experiment [2], the “MTS cell kill data (% inhibition) PC-3” value was “B (B = 50-79% inhibition)”. The “MTS cell kill data (% inhibition) MDA-MB 231” value in experiment [3] is given as “A (A = 80-100% inhibition)”. The “MTS cell kill data (% inhibition) DLD-1” value in experiment [4] is recorded as “A (A = 80-100% inhibition)”. Further, the “Biochemical IC50 (% inhibition) Tec” value in experiment [5] is given as “B (B = 50-79% inhibition)”. The “MTS cell kill data (% inhibition) PACA-2” value in experiment [6] is “A (A = 80-100% inhibition)”. Further, in experiment [7], the “MTS cell kill data (% inhibition) NCI-H1299” value is given as “A (A = 80-100% inhibition)”.

In the case of `COc1ccc(C2c3[nH]c4ccccc4c3CCN2c2ncnc3[nH]ccc23)cc1OC` (stereo not drawn) [Compound 22, 1-(3,4-dimethoxyphenyl)-2-(7H-pyrrolo[2,3-d]pyrimidin-4-yl)-2,3,4,9-tetrahydro-1H-beta-carboline], the “MTS cell kill data (% inhibition) Kato III” value in experiment [1] is reported as “B (B = 50-79% inhibition)”. Moreover, the “MTS cell kill data (% inhibition) PC-3” value in experiment [2] is “C (C = <50% inhibition)”. In addition, the “MTS cell kill data (% inhibition) MDA-MB 231” value in experiment [3] was “C (C = <50% inhibition)”. Further, the “MTS cell kill data (% inhibition) DLD-1” value in experiment [4] is reported as “B (B = 50-79% inhibition)”. Further, the “Biochemical IC50 (% inhibition) Tec” value in experiment [5] is recorded as “C (C = <50% inhibition)”. In experiment [6], the “MTS cell kill data (% inhibition) PACA-2” value is “B (B = 50-79% inhibition)”. Moreover, in experiment [7], the “MTS cell kill data (% inhibition) NCI-H1299” value is “B (B = 50-79% inhibition)”.

In the case of `COc1ccc(C2c3[nH]c4ccccc4c3CCN2c2ncnc3[nH]cnc23)cc1OC` (stereo not drawn) [Compound 23, 1-(3,4-dimethoxyphenyl)-2-(9H-purin-6-yl)-2,3,4,9-tetrahydro-1H-beta-carboline], the “MTS cell kill data (% inhibition) Kato III” value in experiment [1] is recorded as “B (B = 50-79% inhibition)”. Besides, the “MTS cell kill data (% inhibition) PC-3” value in experiment [2] is on record as “C (C = <50% inhibition)”. In experiment [3], the “MTS cell kill data (% inhibition) MDA-MB 231” value is “C (C = <50% inhibition)”. The “MTS cell kill data (% inhibition) DLD-1” value in experiment [4] is on record as “B (B = 50-79% inhibition)”. Also, the “Biochemical IC50 (% inhibition) Tec” value in experiment [5] was “C (C = <50% inhibition)”. In addition, the “MTS cell kill data (% inhibition) PACA-2” value in experiment [6] is “B (B = 50-79% inhibition)”. In addition, in experiment [7], the “MTS cell kill data (% inhibition) NCI-H1299” value is given as “B (B = 50-79% inhibition)”.
